From patent US20220362396A1, “AMINO-PYRAZINECARBOXAMIDE COMPOUNDS, CONJUGATES, AND USES THEREOF” (Silverback Therapeutics, Inc., priority 2018, published 2022)

Tests used:
[1] = tested on: TGFβ/SMAD Signaling Pathway SBE reporter cell line; assay: TGFβ reporter assay, in vitro small molecule screening (luciferase); format: cell-based; conditions: TGFβ stimulation, luminescence
Method: TGFβ/SMAD Signaling Pathway SBE reporter cell line was obtained from BPS Bioscience. Cells were passed, expanded, and stored in liquid nitrogen as per the supplier's instructions with the exception that growth media is changed to DMEM-C with Geneticin (DMEM supplemented with 10% fetal bovine serum, 1×NEAA, 1 mM Pyruvate, 2 mM glutamine, 50 μg/mL penicillin, 50 U/mL streptomycin and 400 μg/mL of Geneticin). The assay media was MEM supplemented with 0.5% fetal bovine serum, 1×NEAA, 1 mM Pyruvate, 50 μg/mL penicillin and 50 U/mL streptomycin.
Test samples (at desired concentrations diluted in assay media) were added to a 96-well assay plate, 20 μL per well. Reporter cells were harvested from the tissue culture flasks by incubation in small quantity of PBS at 37° C. for two minutes after the media in the flask is removed and cells rinsed with PBS. Cells were counted and diluted in the assay media at approximately 0.5×10^6 cells/mL and then 80 μL/well of cells were added to the assay plate containing the 20 μL/well of test samples (or media only), and incubated for approximately 5-6 hours at 37° C. in a 5% CO2 humidified incubator. After that time, 15 μL of TGFβ diluted to 12 ng/mL in the assay media was added to the plate. Controls included TGFβ titration (from 50 to 0 ng/mL) without inhibitors, and media only (without cells, inhibitor or TGFβ). Plates were incubated at 37° C. in a 5% CO2 humidified incubator for 18 h. Luciferase substrate solution is subsequently added at 100 μL per well, incubated in the dark at room temperature for 15 min, and luminescence is measured using a luminometer. EC50 values and curve fits were obtained using Prism (GraphPad Software).

TGFBR2 = target: T1, TGFBR2 (Homo sapiens, UniProt P37173); assay: TGFBR2 RBC assay (enzyme inhibition assay, Reaction Biology Corp.); format: biochemical
T1 construct: purchased Reaction Biology Corp
Method: Compounds of the disclosure were also assayed by Reaction Biology Corp. using the TGFBR2 RBC assay (enzyme inhibition assay). […] NT refers to not tested.

T1 sequence (P37173 23-567): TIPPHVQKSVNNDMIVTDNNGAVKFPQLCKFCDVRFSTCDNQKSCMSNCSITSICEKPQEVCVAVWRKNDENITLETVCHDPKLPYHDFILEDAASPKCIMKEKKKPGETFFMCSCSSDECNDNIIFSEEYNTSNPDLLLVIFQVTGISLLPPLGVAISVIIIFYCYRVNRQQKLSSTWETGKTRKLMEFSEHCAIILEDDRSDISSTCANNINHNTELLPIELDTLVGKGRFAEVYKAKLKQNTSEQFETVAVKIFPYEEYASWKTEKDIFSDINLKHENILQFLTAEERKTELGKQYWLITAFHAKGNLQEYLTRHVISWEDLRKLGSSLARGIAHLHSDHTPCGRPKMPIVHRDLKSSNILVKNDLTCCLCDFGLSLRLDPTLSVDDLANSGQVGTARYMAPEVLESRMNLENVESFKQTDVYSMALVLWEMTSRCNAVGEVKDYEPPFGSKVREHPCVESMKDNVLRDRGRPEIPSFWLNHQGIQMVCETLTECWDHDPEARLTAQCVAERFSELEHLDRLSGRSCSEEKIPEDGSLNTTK

SMILES | EC50 [1] [nM] | IC50 (TGFBR2) [nM]
Nc1ncc(-c2ccc(CCNC(=O)OCc3ccccc3)cc2)nc1C(=O)Nc1cnccc1-c1ccc(F)cc1 [Compound 20] | > 1000 | > 1000
Nc1ncc(-c2ccc(CCCNC(=O)OCc3ccccc3)cc2)nc1C(=O)Nc1cnccc1N1CCOCC1 [Compound 1.2] | 100 to 1000 | < 50
Nc1ncc(-c2ccc3c(c2)CCC(=O)N3)nc1C(=O)Nc1cnccc1N1CCOCC1 [Compound 198] | 100 to 1000 | 50 to 100
NCCc1ccc(-c2cnc(N)c(C(=O)Nc3cncc(-c4cccc(N)c4)c3)n2)cc1 [Compound 149] | > 1000 | 50 to 100
Nc1ncc(-c2ccc3c(c2)CC(O)CC3)nc1C(=O)Nc1cnccc1N1CCOCC1 (stereo not shown) [Compound 246] | 100 to 1000 | < 50
Nc1ncc(-c2ccc(N3CCNCC3)cc2)nc1C(=O)Nc1cnccc1N1CCOCC1 [Compound 70] | 50 to 100 | < 50
Nc1ncc(-c2ccc(CCNC(=O)OCc3ccccc3)cc2)nc1C(=O)Nc1cnccc1-c1ccc(O)cc1 [Compound 34] | > 1000 | 100 to 1000
NCCc1ccc(-c2cnc(N)c(C(=O)Nc3cnc4[nH]ccc4c3N3CCOCC3)n2)cc1 [Compound 134] | 100 to 1000 | < 50
NCCNC(=O)c1ccc(-c2cnc(N)c(C(=O)Nc3cnccc3N3CCOCC3)n2)cc1 [Compound 75] | 100 to 1000 | < 50
Nc1ncc(-c2ccc3c(c2)CCC3O)nc1C(=O)Nc1cnccc1N1CCOCC1 (stereo not shown) [Compound 247] | 50 to 100 | < 50
NCCNc1ccc(-c2cnc(N)c(C(=O)Nc3cnccc3N3CCOCC3)n2)cc1 [Compound 271] | 100 to 1000 | < 50
COc1ccc(-c2ccncc2NC(=O)c2nc(-c3ccc(CCNC(=O)OCc4ccccc4)cc3)cnc2N)cn1 [Compound 16] | 100 to 1000 | < 50
Nc1ncc(-c2ccc(OCC[C@H](N)C(=O)O)cc2)nc1C(=O)Nc1cnccc1N1CCOCC1 [Compound 268] | > 1000 | < 50
NCCc1ccc(-c2cnc(N)c(C(=O)Nc3cnccc3N3CCOCC3)n2)nc1 [Compound 117] | > 1000 | 100 to 1000
Nc1ncc(-c2ccc(CCNC(=O)OCc3ccccc3)nc2)nc1C(=O)Nc1cnccc1N1CCOCC1 [Compound 124] | 100 to 1000 | 100 to 1000
CC1(C)CCNc2ccc(-c3cnc(N)c(C(=O)Nc4cnccc4N4CCOCC4)n3)cc21 [Compound 214] | 100 to 1000 | < 50
Nc1ncc(-c2ccc3c(c2)CC(N)CN3)nc1C(=O)Nc1cnccc1N1CCOCC1 (stereo not shown) [Compound 239] | 100 to 1000 | 50 to 100
CC(C)(C)OC(=O)N[C@H](CO)Cc1ccc(-c2cnc(N)c(C(=O)Nc3cnccc3N3CCOCC3)n2)cc1 [Compound 209] | 100 to 1000 | < 50
CC(C)(C)OC(=O)NCCOc1cccc(-c2cnc(N)c(C(=O)Nc3cnccc3N3CCOCC3)n2)c1 [Compound 183] | 100 to 1000 | < 50

SMILES | EC50 [1] [nM] | IC50 (TGFBR2) [nM]
CC(C)(C)OC(=O)N1CC(Oc2ccc(-c3cnc(N)c(C(=O)Nc4cnccc4N4CCOCC4)n3)cc2)C1 [Compound 218] | 50 to 100 | < 50
COCCCNc1ccncc1NC(=O)c1nc(-c2ccc(CCN)cc2)cnc1N [Compound 97] | > 1000 | > 1000
Nc1ncc(-c2ccc(CCNC(=O)OCc3ccccc3)cc2)nc1C(=O)Nc1cnccc1-c1ccnc(Cl)c1 [Compound 18] | 100 to 1000 | > 1000
Nc1ncc(-c2ccc(O[C@H]3CCN(C(=O)OCc4ccccc4)C3)cc2)nc1C(=O)Nc1cnccc1N1CCOCC1 [Compound 164] | 100 to 1000 | 50 to 100
COc1ccccc1-c1cnc(N)c(C(=O)Nc2cnccc2N2CCOCC2)n1 [Compound 150] | > 1000 | 100 to 1000
C[C@H](N)C(=O)NCc1ccc(-c2cnc(N)c(C(=O)Nc3cnccc3N3CCOCC3)n2)cc1 [Compound 106] | 100 to 1000 | 50 to 100
Nc1ncc(-c2ccc(CCNC(=O)OCc3ccccc3)cc2)nc1C(=O)Nc1cnccc1-c1ccnnc1 [Compound 48] | > 1000 | < 50
Nc1ncc(-c2ccccc2)nc1C(=O)Nc1cnccc1N1CCOCC1 [Compound 180] | 100 to 1000 | 50 to 100
Nc1ncc(-c2ccc(N3CCC(N)CC3)cc2)nc1C(=O)Nc1cnccc1N1CCOCC1 [Compound 279] | 50 to 100 | < 50
COc1ccc(OC)c(-c2cnc(N)c(C(=O)Nc3cnccc3N3CCOCC3)n2)c1 [Compound 159] | 100 to 1000 | 100 to 1000
Nc1ncc(-c2ccc3c(c2)CCCC3O)nc1C(=O)Nc1cnccc1N1CCOCC1 (stereo not shown) [Compound 245] | 100 to 1000 | < 50
Nc1ncc(-c2ccc(Cl)cc2Cl)nc1C(=O)Nc1cnccc1N1CCOCC1 [Compound 153] | > 1000 | 100 to 1000
Nc1ncc(-c2ccc3c(c2)CCCNC3)nc1C(=O)Nc1cnccc1N1CCOCC1 [Compound 229] | 100 to 1000 | 50 to 100
Nc1ncc(-c2ccc(CC(=O)N3CCNCC3)cc2)nc1C(=O)Nc1cnccc1N1CCOCC1 [Compound 92] | 100 to 1000 | < 50
Nc1ncc(-c2ccc(O[C@@H]3CCN(C(=O)OCc4ccccc4)C3)cc2)nc1C(=O)Nc1cnccc1N1CCOCC1 [Compound 162] | 100 to 1000 | < 50
NCCc1ccc(-c2cnc(N)c(C(=O)Nc3cnccc3CN3CCCC3)n2)cc1 [Compound 93] | 100 to 1000 | 100 to 1000
Nc1ncc(-c2ccc(CCNC(=O)OCc3ccccc3)cc2)nc1C(=O)Nc1cnccc1-c1ccncc1F [Compound 23] | 100 to 1000 | < 50
NCCc1ccc(-c2cnc(N)c(C(=O)Nc3cncc(Cl)c3N3CCOCC3)n2)cc1 [Compound 139] | 100 to 1000 | < 50
Nc1ncc(-c2ccc(O[C@H]3CCCN(C(=O)OCc4ccccc4)C3)cc2)nc1C(=O)Nc1cnccc1N1CCOCC1 [Compound 165] | 100 to 1000 | 100 to 1000

SMILES | EC50 [1] [nM] | IC50 (TGFBR2) [nM]
Nc1ncc(-c2ccc3c(c2)CCCO3)nc1C(=O)Nc1cnccc1N1CCOCC1 [Compound 174] | 100 to 1000 | < 50
NCCc1ccc(-c2cnc(N)c(C(=O)Nc3cnc(N)cc3N3CCOCC3)n2)cc1 [Compound 135] | > 1000 | > 1000
CC(C)(C)OC(=O)NCC1CCc2cc(-c3cnc(N)c(C(=O)Nc4cnccc4N4CCOCC4)n3)ccc2O1 (stereo not shown) [Compound 233] | 100 to 1000 | < 50
NCCCc1cccc(-c2cnc(N)c(C(=O)Nc3cnccc3N3CCOCC3)n2)c1 [Compound 182] | 100 to 1000 | < 50
CC(N)COc1ccc(-c2cnc(N)c(C(=O)Nc3cnccc3N3CCOCC3)n2)cc1 (stereo not shown) [Compound 205] | 100 to 1000 | < 50
Nc1ncc(-c2ccc(CC(=O)NCCNC(=O)OCc3ccccc3)cc2)nc1C(=O)Nc1cnccc1N1CCOCC1 [Compound 94] | 100 to 1000 | < 50
Nc1ncc(-c2ccc(CCNC(=O)OCc3ccccc3)cc2)nc1C(=O)Nc1cnccc1N1CCC(F)(F)CC1 [Compound 29] | 100 to 1000 | > 1000
CNCCc1ccc(-c2cnc(N)c(C(=O)Nc3cnccc3N3CCOCC3)n2)cc1 [Compound 44] | 100 to 1000 | 100 to 1000
COC(=O)[C@@H](CCOc1ccc(-c2cnc(N)c(C(=O)Nc3cnccc3N3CCOCC3)n2)cc1)NC(=O)OCc1ccccc1 [Compound 270] | 100 to 1000 | < 50
Nc1ncc(-c2ccc(CCNC(=O)OCc3ccccc3)cc2)nc1C(=O)Nc1cnc2ccccc2c1N1CCOCC1 [Compound 126] | 100 to 1000 | > 1000
COCCN(C)c1ccncc1NC(=O)c1nc(-c2ccc(CCN)cc2)cnc1N [Compound 102] | 100 to 1000 | 100 to 1000
CC(C)(C)OC(=O)NCCNc1ccc(-c2cnc(N)c(C(=O)Nc3cnccc3N3CCOCC3)n2)cc1 [Compound 266] | 100 to 1000 | < 50
CN(C)c1ccc(-c2cnc(N)c(C(=O)Nc3cnccc3N3CCOCC3)n2)cc1 [Compound 259] | < 50 | < 50
CC(C)c1nccn1-c1ccncc1NC(=O)c1nc(-c2ccc(CCNC(=O)OCc3ccccc3)cc2)cnc1N [Compound 143] | > 1000 | < 50
Nc1ncc(-c2ccc(OC3CNC3)cc2)nc1C(=O)Nc1cnccc1N1CCOCC1 [Compound 219] | 50 to 100 | < 50
CC(C)(C)OC(=O)N1CCN(Cc2ccc(-c3cnc(N)c(C(=O)Nc4cnccc4N4CCOCC4)n3)cc2)C(=O)C1 [Compound 85] | < 50 | < 50
Nc1ncc(-c2ccc(CCNC(=O)OCc3ccccc3)cc2)nc1C(=O)Nc1cnccc1N1CCOCC1=O [Compound 35] | 100 to 1000 | 100 to 1000
Nc1ncc(-c2cccc(Cl)c2)nc1C(=O)Nc1cnccc1N1CCOCC1 [Compound 152] | 100 to 1000 | < 50
